System: HCV genotype-1a variant with glutamine 30 changed to glutamate in the NS5A protein
Assay type: cell-based
Settings: test compound titrated with BMS-790052 fixed at 200 nM; genotype 1a Q30E replicon
How it was run: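 Synergy was assessed by combining several fixed amounts of an NS5A-targeting compound with a titration of the second compound of interest.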

SMILES	Fold-Synergistic 1a (Q30E) [fold]
CC(C)[C@H](NC(=O)c1ccc(C(F)(F)F)s1)c1ncc(-c2ccc(-c3ccc(-c4cnc([C@@H](NC(=O)c5ccc(C(F)(F)F)s5)C(C)C)[nH]4)cc3)cc2)[nH]1 [Compound Y-21]	>100
C[C@H]1C[C@@H](c2nc(-c3ccc(-c4ccc(-c5c[nH]c([C@@H]6C[C@H](C)CN6C(=O)C(=O)N6CCC(F)(F)CC6)n5)cc4)cc3)c[nH]2)N(C(=O)C(=O)N2CCC(F)(F)CC2)C1 [Compound L-143]	>100
CC(C)(C)OC(=O)CC(C(=O)NC(c1nc(-c2ccc(-c3ccc(-c4c[nH]c(C(NC(=O)C(CC(=O)OC(C)(C)C)C5CCCC5)C(C)(C)C)n4)cc3)cc2)c[nH]1)C(C)(C)C)C1CCCC1 (stereo not shown) [Compound S-272]	>100
COc1ccccc1C(O)C(C)(C)C(=O)N[C@H](c1nc(-c2ccc(-c3ccc(-c4c[nH]c([C@@H](NC(=O)C(C)(C)C(O)c5ccccc5OC)C(C)(C)C)n4)cc3)cc2)c[nH]1)C(C)(C)C (single isomer, unassigned) [Compound N-125B]	>100
COCC(=O)N[C@H](c1ncc(-c2ccc(-c3ccc(-c4cnc([C@@H](NC(=O)COC)C(C)C)[nH]4)cc3)cc2)[nH]1)C(C)C [Compound S-13]	>10
CC(C)(C)C(NC(=O)CC1CCCO1)c1nc(-c2ccc(-c3ccc(-c4c[nH]c(C(NC(=O)CC5CCCO5)C(C)(C)C)n4)cc3)cc2)c[nH]1.O=C(O)C(F)(F)F.O=C(O)C(F)(F)F (mixture of isomers) [Compound L-70]	>100
CC(C)(C)C(NC(=O)C1(C)CC1(F)F)c1nc(-c2ccc(-c3ccc(-c4c[nH]c(C(NC(=O)C5(C)CC5(F)F)C(C)(C)C)n4)cc3)cc2)c[nH]1 (single isomer, unassigned) [Compound L-58b]	>100
O=C(C(=O)N1CCCC1c1nc(-c2ccc(-c3ccc(-c4c[nH]c([C@@H]5CCCN5C(=O)C(=O)N5CCC(F)(F)CC5)n4)cc3)cc2)c[nH]1)N1CCC(F)(F)CC1 (stereo partly shown) [Compound W-189]	>100
CC(C)[C@H](NC(=O)c1cccc2ccccc12)c1ncc(-c2ccc(-c3ccc(-c4cnc([C@@H](NC(=O)c5cccc6ccccc56)C(C)C)[nH]4)cc3)cc2)[nH]1 [Compound S-86]	>100
O=C(c1cc2ccccc2o1)N1CCC[C@H]1c1ncc(-c2ccc(-c3ccc(-c4cnc([C@@H]5CCCN5C(=O)c5cc6ccccc6o5)[nH]4)cc3)cc2)[nH]1 [Compound S-122]	>10
CC(C)(C)C(=O)N[C@H]1CCC[C@H]1c1nc(-c2ccc(-c3ccc(-c4c[nH]c([C@@H]5CCC[C@@H]5NC(=O)C(C)(C)C)n4)cc3)cc2)c[nH]1 [Compound L-107]	>100
CC(C)(C)[C@H](NC(=O)C(C)(C)C(F)(F)F)c1nc(-c2ccc(-c3ccc(-c4c[nH]c([C@@H](NC(=O)C(C)(C)C(F)(F)F)C(C)(C)C)n4)cc3)cc2)c[nH]1 [Compound P-31]	>100
CC(C)N(C(=O)C(=O)NC(c1nc(-c2ccc(-c3ccc(-c4c[nH]c(C(NC(=O)C(=O)N(C(C)C)C5CC5)C5CC5)n4)cc3)cc2)c[nH]1)C1CC1)C1CC1 [Compound L-36]	>100
CC(C)(C)[C@H](NC(=O)C1C2CCOC21)c1nc(-c2ccc(-c3ccc(-c4cnc([C@@H](NC(=O)C5C6CCOC65)C(C)(C)C)[nH]4)cc3)cc2)c[nH]1 (single isomer, unassigned) [Compound B-163]	>100
O=C(NC(c1nc(-c2ccc(-c3ccc(-c4c[nH]c(C(NC(=O)C5CCC(F)(F)CC5)C5(C(F)(F)F)CC5)n4)cc3)cc2)c[nH]1)C1(C(F)(F)F)CC1)C1CCC(F)(F)CC1.O=C(O)C(F)(F)F (single isomer, unassigned) [Compound N-109B]	>100
CC(C)[C@H](NC(=O)c1cc(F)ccc1F)c1ncc(-c2ccc(-c3ccc(-c4cnc([C@@H](NC(=O)c5cc(F)ccc5F)C(C)C)[nH]4)cc3)cc2)[nH]1 [Compound S-63]	>100
Cc1cccc(CC(=O)N[C@H](c2ncc(-c3ccc(-c4ccc(-c5cnc([C@@H](NC(=O)Cc6cccc(C)c6)C(C)C)[nH]5)cc4)cc3)[nH]2)C(C)C)c1 [Compound S-41]	>10
CC(C)[C@H](NC(=O)c1cccc(-c2ccccc2)c1)c1ncc(-c2ccc(-c3ccc(-c4cnc([C@@H](NC(=O)c5cccc(-c6ccccc6)c5)C(C)C)[nH]4)cc3)cc2)[nH]1 [Compound S-17]	>100
C[C@H]1CCN(C(=O)C(=O)N2CCC(F)(F)CC2)C1c1nc(-c2ccc(-c3ccc(-c4c[nH]c(C5[C@@H](C)CCN5C(=O)C(=O)N5CCC(F)(F)CC5)n4)cc3)cc2)c[nH]1 (stereo partly shown) [Compound W-187]	>100
CCCCC(=O)NC1(C(=O)N[C@H](c2nc(-c3ccc(-c4ccc(-c5c[nH]c([C@@H](NC(=O)C6(NC(=O)CCCC)CCCCC6)C(C)(C)C)n5)cc4)cc3)c[nH]2)C(C)(C)C)CCCCC1 [Compound W-253]	>100

SMILES	Fold-Synergistic 1a (Q30E) [fold]
COc1cccc(CC(=O)N[C@H](c2ncc(-c3ccc(-c4ccc(-c5cnc([C@@H](NC(=O)Cc6cccc(OC)c6)C(C)C)[nH]5)cc4)cc3)[nH]2)C(C)C)c1 [Compound S-40]	>100
CC(O)C(C)(C)C(=O)N[C@H](c1ncc(-c2ccc(-c3ccc(-c4cnc([C@@H](NC(=O)C(C)(C)C(C)O)C(C)(C)C)[nH]4)cc3)cc2)[nH]1)C(C)(C)C (single isomer, unassigned) [Compound B78]	>100
CC(C)(C)[C@H](NC(=O)C1CC(F)(F)C1)c1nc(-c2ccc(-c3ccc(-c4c[nH]c([C@@H](NC(=O)C5CC(F)(F)C5)C(C)(C)C)n4)cc3)cc2)c[nH]1 [Compound P-17]	>100
Cc1cc(-c2ccc(-c3c[nH]c([C@@H](NC(=O)C4(C)CCCCC4)C(C)C)n3)cc2)ccc1-c1c[nH]c([C@@H](NC(=O)C2(C)CCCCC2)C(C)C)n1.O=C(O)C(F)(F)F [Compound N-79]	>100
CC(C)(C)[C@H](NC(=O)C1CCC(F)(F)CC1)c1nc(-c2ccc(-c3ncc(-c4c[nH]c([C@@H](NC(=O)C5CCC(F)(F)CC5)C(C)(C)C)n4)cn3)cc2)c[nH]1 [Compound N-104]	>100
CC(C)(C)[C@H](NC(=O)C1CCC(F)(F)CC1)c1ncc(C#CC#Cc2cnc([C@@H](NC(=O)C3CCC(F)(F)CC3)C(C)(C)C)[nH]2)[nH]1 [Compound B66]	>10
CC(C)(C)C(=O)N[C@H](c1ncc(-c2ccc3cc4cc(-c5cnc([C@@H](NC(=O)C(C)(C)C)C(C)(C)C)[nH]5)ccc4cc3c2)[nH]1)C(C)(C)C [Compound B27]	>100
CC(C)(C)[C@H](NC(=O)Cc1ccc(F)cc1)c1nc(-c2ccc(-c3ccc(-c4c[nH]c([C@@H](NC(=O)Cc5ccc(F)cc5)C(C)(C)C)n4)cc3)cc2)c[nH]1 [Compound N-49]	>100
CC(C)(C)COC(=O)N1CCC[C@H]1c1ncc(-c2ccc(-c3ccc(-c4cnc([C@@H]5CCCN5C(=O)OCC(C)(C)C)[nH]4)cc3)cc2)[nH]1 [Compound S-221]	>10
CCN(CC(F)(F)F)C(=O)C(=O)NC(c1nc(-c2ccc(-c3ccc(-c4c[nH]c(C(NC(=O)C(=O)N(CC)CC(F)(F)F)C(C)C)n4)cc3)cc2)c[nH]1)C(C)C (stereo not shown) [Compound W-56]	>100
COCC1(C(=O)N[C@H](c2nc(-c3ccc(-c4ccc(-c5c[nH]c([C@@H](NC(=O)C6(COC)CCC(F)(F)CC6)C(C)(C)C)n5)cc4)cc3)c[nH]2)C(C)(C)C)CCC(F)(F)CC1 [Compound P-41]	>100
CC(C)C(NC(=O)C(C)(C)C(O)C1CC1)c1nc(-c2ccc(-c3ccc(-c4c[nH]c(C(NC(=O)C(C)(C)C(O)C5CC5)C(C)C)n4)cc3)cc2)c[nH]1 (mixture of isomers) [Compound N-149]	>100
CC1([C@H](NC(=O)C(=O)N2CCC(F)(F)CC2)c2nc(-c3ccc(-c4ccc(-c5c[nH]c([C@@H](NC(=O)C(=O)N6CCC(F)(F)CC6)C6(C)CC6)n5)cc4)cc3)c[nH]2)CC1.O=C(O)C(F)(F)F [Compound W-39]	>100
CC(C)[C@H](NC(=O)C(=O)c1ccccc1OC(F)F)c1ncc(-c2ccc(-c3ccc(-c4cnc([C@@H](NC(=O)C(=O)c5ccccc5OC(F)F)C(C)C)[nH]4)cc3)cc2)[nH]1 [Compound P-122]	>100
CC(C)(C)C(=O)N[C@H](c1nc(-c2ccc(-c3ccc(-c4c[nH]c([C@@H](NC(=O)C(C)(C)C)C(C)(C)C)n4)c(F)c3)cc2)c[nH]1)C(C)(C)C.O=C(O)C(F)(F)F [Compound N-93]	>100
COc1cccc2c(C(=O)N3CCC[C@H]3c3ncc(-c4ccc(-c5ccc(-c6cnc([C@@H]7CCCN7C(=O)c7nccc8c(OC)cccc78)[nH]6)cc5)cc4)[nH]3)nccc12 [Compound S-201]	>100
Cc1cccc(C(=O)N[C@H](c2ncc(-c3ccc(-c4ccc(-c5cnc([C@@H](NC(=O)c6cccc(C)n6)C(C)C)[nH]5)cc4)cc3)[nH]2)C(C)C)n1 [Compound S-48]	>100
CC(C)(C)[C@H](NC(=O)[C@@]1(C)CCC(F)(F)CO1)c1ncc(-c2ccc([C@H]3C[C@@H]3c3ccc(-c4cnc([C@@H](NC(=O)[C@@]5(C)CCC(F)(F)CO5)C(C)(C)C)[nH]4)cc3)cc2)[nH]1 [Compound B-187]	>100
CC(C)[C@H](NC(=O)c1cc(Cl)ccc1F)c1nc(-c2ccc3c(c2)CCc2cc(-c4c[nH]c([C@@H](NC(=O)c5cc(Cl)ccc5F)C(C)C)n4)ccc2-3)c[nH]1.O=C(O)C(F)(F)F [Compound N-76]	>100
CC(C)(C)OC(=O)NC1CCCC(C(=O)NC(c2nc(-c3ccc(-c4ccc(-c5c[nH]c(C(NC(=O)C6CCCC(NC(=O)OC(C)(C)C)C6)C(C)(C)C)n5)cc4)cc3)c[nH]2)C(C)(C)C)C1 (mixture of isomers) [Compound S-266]	>100

Source: US20160158200A1, “Combinations of Hepatitis C Virus Inhibitors” (priority 2013, published 2016)
